How the values were obtained:
Type in all cases: biochemical
JAK3 = target: T1, JAK3 (Homo sapiens, UniProt P52333); experiment: Z'-LYTE kinase assay JAK3
T1 construct: 5 μl of catalytic domain recombinant Kinase enzyme+Tyr peptide substrate (Invitrogen, CA); purchased Invitrogen
How it was run: (§1)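 In duplicate wells, each test molecule (1% final DMSO) is incubated with recombinant kinase catalytic domain, Tyr6 peptide substrate and ATP for one hour at room temperature; a site-specific protease is then added for another hour before fluorescence reading.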

JAK2 = target: T2, JAK2 (Homo sapiens, UniProt O60674); experiment: Z'-LYTE kinase assay JAK2
T2 construct: 5 μl of catalytic domain recombinant Kinase enzyme+Tyr peptide substrate (Invitrogen, CA); purchased Invitrogen
How it was run: as §1

JAK1 = target: T3, JAK1 (Homo sapiens, UniProt P23458); experiment: Z'-LYTE kinase assay JAK1
T3 construct: 5 μl of catalytic domain recombinant Kinase enzyme+Tyr peptide substrate (Invitrogen, CA); purchased Invitrogen
How it was run: as §1

T3 sequence (P23458 875-1153 limits assumed): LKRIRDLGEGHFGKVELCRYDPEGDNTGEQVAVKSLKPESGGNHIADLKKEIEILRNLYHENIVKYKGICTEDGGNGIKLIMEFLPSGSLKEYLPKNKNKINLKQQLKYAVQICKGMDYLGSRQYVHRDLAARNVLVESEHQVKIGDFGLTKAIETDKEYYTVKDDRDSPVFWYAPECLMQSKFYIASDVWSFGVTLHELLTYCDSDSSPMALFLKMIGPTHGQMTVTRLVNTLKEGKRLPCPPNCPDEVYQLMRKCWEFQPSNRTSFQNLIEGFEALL
T2 sequence (O60674 849-1124 limits assumed): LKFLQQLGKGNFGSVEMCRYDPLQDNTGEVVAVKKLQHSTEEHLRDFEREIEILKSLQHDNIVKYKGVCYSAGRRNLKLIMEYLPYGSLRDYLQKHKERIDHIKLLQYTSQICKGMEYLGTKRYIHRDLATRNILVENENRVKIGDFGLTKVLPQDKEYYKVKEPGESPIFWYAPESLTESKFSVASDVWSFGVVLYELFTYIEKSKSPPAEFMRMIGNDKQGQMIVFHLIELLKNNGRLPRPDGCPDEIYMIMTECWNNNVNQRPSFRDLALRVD
T1 sequence (P52333 822-1111 limits assumed): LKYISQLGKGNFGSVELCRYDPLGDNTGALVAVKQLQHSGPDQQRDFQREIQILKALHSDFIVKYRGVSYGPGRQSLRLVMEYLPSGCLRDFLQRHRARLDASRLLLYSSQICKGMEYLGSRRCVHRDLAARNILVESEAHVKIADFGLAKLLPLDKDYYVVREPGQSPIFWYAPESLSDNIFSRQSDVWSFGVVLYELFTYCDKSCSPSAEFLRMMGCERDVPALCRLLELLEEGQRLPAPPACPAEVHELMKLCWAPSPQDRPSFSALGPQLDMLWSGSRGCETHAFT

`CCS(=O)(=O)N1CCC[C@H](CNc2cc(Nc3ccc(OC)cc3)ncc2C(N)=O)C1` [Example 289, (R)-4-((1-(ethylsulfonyl)piperidin-3-yl)methylamino)-6-(4-methoxyphenylamino)nicotinamide] was tested, and the IC50 (JAK3) was 10 to 100 nM, the IC50 (JAK2) was 100 to 1000 nM and the IC50 (JAK1) was over 1000 nM.

In the case of `CCC(=O)N1CCC(c2ccc(Nc3cc(NCc4cccc5[nH]ncc45)c(C(N)=O)cn3)cc2)CC1` [Example 210, 4-((1H-indazol-4-yl)methylamino)-6-(4-(1-propionylpiperidin-4-yl)phenylamino)nicotinamide], the IC50 (JAK3) is reported as 1 to 10 nM, the IC50 (JAK2) is reported as 10 to 100 nM and the IC50 (JAK1) is reported as 10 to 100 nM.

Work on `CN(C)C(=O)N1CC(c2ccc(Nc3cc(NCc4ccccc4)c(C(N)=O)cn3)cc2)C1` [Example 337, 4-(benzylamino)-6-(4-(1-(dimethylcarbamoyl)azetidin-3-yl)phenylamino)nicotinamide] yielded an IC50 (JAK3) of 1 to 10 nM, an IC50 (JAK2) of 100 to 1000 nM and an IC50 (JAK1) of 100 to 1000 nM.

`NC(=O)c1cnc(Nc2ccc(-n3cccn3)cc2)cc1NCc1ccccc1` [Example 277, 6-(4-(1H-pyrazol-1-yl)phenylamino)-4-(benzylamino)nicotinamide] gave an IC50 (JAK3) of 10 to 100 nM, an IC50 (JAK2) of over 1000 nM and an IC50 (JAK1) of over 1000 nM.

For `CN(C)S(=O)(=O)N(C)c1ccc(Nc2cc(NCc3ccccc3)c(C(N)=O)cn2)cc1` [Example 268, 4-(benzylamino)-6-(4-((N,N-dimethylsulfamoyl)(methyl)amino)phenylamino)nicotinamide], the IC50 (JAK3) was 10 to 100 nM, the IC50 (JAK2) was 100 to 1000 nM and the IC50 (JAK1) was 100 to 1000 nM.

Work on `CC(=O)N1CCC(CNc2cc(Nc3ccc(C(=O)N4CCC4)cc3)ncc2C(N)=O)CC1` [Example 50, 4-((1-acetylpiperidin-4-yl)methylamino)-6-(4-(azetidine-1-carbonyl)phenylamino)nicotinamide] yielded an IC50 (JAK3) of over 1000 nM, an IC50 (JAK2) of over 1000 nM and an IC50 (JAK1) of over 1000 nM.

Compound `Cc1cc(Nc2cc(NCc3cccc(F)c3F)c(C(N)=O)cn2)ccc1C(=O)N1CCC1` [Example 454, 6-(4-(azetidine-1-carbonyl)-3-methylphenylamino)-4-(2,3-difluorobenzylamino)nicotinamide] has an IC50 (JAK3) of under 1 nM, an IC50 (JAK2) of 10 to 100 nM and an IC50 (JAK1) of 100 to 1000 nM.

Compound `COC(=O)N1CC(c2ccc(Nc3cc(NCc4ccccc4)c(C(N)=O)cn3)cc2)C1` [Example 327, methyl 3-(4-(4-(benzylamino)-5-carbamoylpyridin-2-ylamino)phenyl)azetidine-1-carboxylate] has an IC50 (JAK3) of 10 to 100 nM, an IC50 (JAK2) of 100 to 1000 nM and an IC50 (JAK1) of over 1000 nM.

`COCC(=O)N1CCC[C@H](CNc2cc(Nc3ccc(C(=O)N4CCCC4)cc3)ncc2C(N)=O)C1` [Example 267, (R)-4-((1-(2-methoxyacetyl)piperidin-3-yl)methylamino)-6-(4-(pyrrolidine-1-carbonyl)phenylamino)nicotinamide] showed an IC50 (JAK3) of 10 to 100 nM, an IC50 (JAK2) of 100 to 1000 nM and an IC50 (JAK1) of over 1000 nM.

Compound `NC(=O)c1cnc(Nc2cccc(C3CCOCC3)c2)cc1NCc1cccc(F)c1F` [Example 205, 4-(2,3-difluorobenzylamino)-6-(3-(tetrahydro-2H-pyran-4-yl)phenylamino)nicotinamide] has an IC50 (JAK3) of 1 to 10 nM, an IC50 (JAK2) of 10 to 100 nM and an IC50 (JAK1) of 100 to 1000 nM.

For `COc1ccc(Nc2cc(NC[C@H]3CCCN(C(=O)N(C)C)C3)c(C(N)=O)cn2)cc1` [Example 291, (R)-4-((1-(dimethylcarbamoyl)piperidin-3-yl)methylamino)-6-(4-methoxyphenylamino)nicotinamide], the IC50 (JAK3) was 100 to 1000 nM, the IC50 (JAK2) was over 1000 nM and the IC50 (JAK1) was over 1000 nM.

`NC(=O)c1cnc(Nc2cccc(C3CCNCC3)c2)cc1NCc1ccccc1F` [Example 120, 4-(2-fluorobenzylamino)-6-(3-(piperidin-4-yl)phenylamino)nicotinamide] gave an IC50 (JAK3) of 1 to 10 nM, an IC50 (JAK2) of 10 to 100 nM and an IC50 (JAK1) of 100 to 1000 nM.

For `NC(=O)c1cnc(Nc2cccc(C3CCOCC3)c2)cc1NCc1cc(F)cc(F)c1` [Example 206, 4-(3,5-difluorobenzylamino)-6-(3-(tetrahydro-2H-pyran-4-yl)phenylamino)nicotinamide], the IC50 (JAK3) was 1 to 10 nM, the IC50 (JAK2) was 10 to 100 nM and the IC50 (JAK1) was 100 to 1000 nM.

Work on `NC(=O)c1cnc(Nc2ccc3cccnc3c2)cc1NCc1ccccc1` [Example 87, 4-(benzylamino)-6-(quinolin-7-ylamino)nicotinamide] yielded an IC50 (JAK3) of 100 to 1000 nM, an IC50 (JAK2) of over 1000 nM and an IC50 (JAK1) of over 1000 nM.

With `NC(=O)c1cnc(Nc2ccc3ccncc3c2)cc1NCc1ccccc1` [Example 89, 4-(benzylamino)-6-(isoquinolin-7-ylamino)nicotinamide] the IC50 (JAK3) was 100 to 1000 nM, the IC50 (JAK2) was over 1000 nM and the IC50 (JAK1) was over 1000 nM.

With `N#Cc1ccc(Nc2cc(NCc3cncc(F)c3)c(C(N)=O)cn2)cc1` [Example 308, 6-(4-cyanophenylamino)-4-((5-fluoropyridin-3-yl)methylamino)nicotinamide] the IC50 (JAK3) was 10 to 100 nM, the IC50 (JAK2) was over 1000 nM and the IC50 (JAK1) was over 1000 nM.

In the case of `Cc1cc(Nc2cc(NCc3cccc(F)c3F)c(C(N)=O)cn2)ccc1C(=O)N1CCCC1` [Example 456, 4-(2,3-difluorobenzylamino)-6-(3-methyl-4-(pyrrolidine-1-carbonyl)phenylamino)nicotinamide], the IC50 (JAK3) is reported as under 1 nM, the IC50 (JAK2) is reported as 10 to 100 nM and the IC50 (JAK1) is reported as 100 to 1000 nM.

In the case of `CN(C)C(=O)N1CCC(Nc2cc(Nc3ccc(C4CCOCC4)cc3)ncc2C(N)=O)CC1` [Example 163, 4-(1-(dimethylcarbamoyl)piperidin-4-ylamino)-6-(4-(tetrahydro-2H-pyran-4-yl)phenylamino)nicotinamide], the IC50 (JAK3) is reported as 100 to 1000 nM, the IC50 (JAK2) is reported as over 1000 nM and the IC50 (JAK1) is reported as over 1000 nM.

Compound `COc1ccc(Nc2cc(NC[C@H]3CCCNC3)c(C(N)=O)cn2)cc1` [Example 270, (S)-6-(4-methoxyphenylamino)-4-(piperidin-3-ylmethylamino)nicotinamide] has an IC50 (JAK3) of 100 to 1000 nM, an IC50 (JAK2) of over 1000 nM and an IC50 (JAK1) of 100 to 1000 nM.

`CN(C)C(=O)c1ccc(Nc2cc(NCc3cccc(-c4ccccn4)c3)c(C(N)=O)cn2)cc1` [Example 421, 6-(4-(dimethylcarbamoyl)phenylamino)-4-(3-(pyridine-2-yl)benzylamino)nicotinamide] showed an IC50 (JAK3) of 10 to 100 nM, an IC50 (JAK2) of 100 to 1000 nM and an IC50 (JAK1) of over 1000 nM.

Work on `CC(C)(C)CNc1cc(Nc2ccc(C3CCOCC3)cc2)ncc1C(N)=O` [Example 155, 4-(neopentylamino)-6-(4-(tetrahydro-2H-pyran-4-yl)phenylamino)nicotinamide] yielded an IC50 (JAK3) of 100 to 1000 nM, an IC50 (JAK2) of 100 to 1000 nM and an IC50 (JAK1) of 100 to 1000 nM.

`CS(=O)(=O)Cc1ccc(Nc2cc(NCc3ccccc3)c(C(N)=O)cn2)cc1` [Example 347, 4-(benzylamino)-6-(4-(methylsulfonylmethyl)phenylamino)nicotinamide] was tested, and the IC50 (JAK3) was 1 to 10 nM, the IC50 (JAK2) was 100 to 1000 nM and the IC50 (JAK1) was 100 to 1000 nM.

`COC[C@@H](Nc1cc(Nc2cccc(N3CCOCC3)c2)ncc1C(N)=O)c1ccccc1` [Example 261, (S)-4-(2-methoxy-1-phenylethylamino)-6-(3-morpholinophenylamino)nicotinamide] gave an IC50 (JAK3) of 10 to 100 nM, an IC50 (JAK2) of 100 to 1000 nM and an IC50 (JAK1) of over 1000 nM.

In the case of `COc1cc(Nc2cc(NCc3ccccc3)c(C(N)=O)cn2)cc(OC)c1OC` [Example 280, 4-(benzylamino)-6-(3,4,5-trimethoxyphenylamino)nicotinamide], the IC50 (JAK3) is reported as 10 to 100 nM, the IC50 (JAK2) is reported as 100 to 1000 nM and the IC50 (JAK1) is reported as over 1000 nM.

Compound `CN(C)C(=O)c1ccc(Nc2cc(NCc3ccccc3)c(C(N)=O)cn2)cc1C(F)(F)F` [Example 272, 4-(benzylamino)-6-(4-(dimethylcarbamoyl)-3-(trifluoromethyl)phenylamino)nicotinamide] has an IC50 (JAK3) of 10 to 100 nM, an IC50 (JAK2) of over 1000 nM and an IC50 (JAK1) of over 1000 nM.

In the case of `COCC(=O)N1CCC[C@@H](CNc2cc(Nc3ccc(OC)cc3)ncc2C(N)=O)C1` [Example 51, (S)-4-((1-(2-methoxyacetyl)piperidin-3-yl)methylamino)-6-(4-methoxyphenylamino)nicotinamide], the IC50 (JAK3) is reported as 100 to 1000 nM, the IC50 (JAK2) is reported as over 1000 nM and the IC50 (JAK1) is reported as over 1000 nM.

`NC(=O)c1cnc(Nc2ccc(S(=O)(=O)N3CCC3)cc2)cc1NCC1CCCC1` [Example 49, 6-(4-(azetidin-1-ylsulfonyl)phenylamino)-4-(cyclopentylmethylamino)nicotinamide] showed an IC50 (JAK3) of 100 to 1000 nM, an IC50 (JAK2) of over 1000 nM and an IC50 (JAK1) of over 1000 nM.

Compound `CC(C)c1cccc(Nc2cc(NCc3ccccc3F)c(C(N)=O)cn2)c1` [Example 162, 4-(2-fluorobenzylamino)-6-(3-isopropylphenylamino)nicotinamide] has an IC50 (JAK3) of 100 to 1000 nM, an IC50 (JAK2) of over 1000 nM and an IC50 (JAK1) of over 1000 nM.

For `CN(C)C(=O)C1CN(c2ccc(Nc3cc(NCc4ccccc4)c(C(N)=O)cn3)cc2)C1` [Example 331, 4-(benzylamino)-6-(4-(3-(dimethylcarbamoyl)azetidin-1-yl)phenylamino)nicotinamide], the IC50 (JAK3) was 1 to 10 nM, the IC50 (JAK2) was 100 to 1000 nM and the IC50 (JAK1) was 100 to 1000 nM.

Work on `NC(=O)c1cnc(Nc2cc(F)cc(F)c2)cc1NCc1cccc2[nH]ccc12` [Example 323, 4-((1H-indol-4-yl)methylamino)-6-(3,5-difluorophenylamino)nicotinamide] yielded an IC50 (JAK3) of 100 to 1000 nM, an IC50 (JAK2) of over 1000 nM and an IC50 (JAK1) of over 1000 nM.

For `NC(=O)c1cnc(Nc2ccc(C3CCN(CC(F)F)CC3)cc2)cc1NCc1cccc(F)c1F` [Example 216, 4-(2,3-difluorobenzylamino)-6-(4-(1-(2,2-difluoroethyl)piperidin-4-yl)phenylamino)nicotinamide], the IC50 (JAK3) was 10 to 100 nM, the IC50 (JAK2) was over 1000 nM and the IC50 (JAK1) was over 1000 nM.

Work on `Cc1cc(Nc2cc(NCc3cccc4cc[nH]c34)c(C(N)=O)cn2)ccc1C(=O)N1CCC1` [Example 463, 4-((1H-indol-7-yl)methylamino)-6-(4-(azetidine-1-carbonyl)-3-methylphenylamino)nicotinamide] yielded an IC50 (JAK3) of 1 to 10 nM, an IC50 (JAK2) of 10 to 100 nM and an IC50 (JAK1) of over 1000 nM.

Work on `CNC(=O)Cc1ccc(Nc2cc(NCc3ccccc3)c(C(N)=O)cn2)cc1` [Example 340, 4-(benzylamino)-6-(4-(2-(methylamino)-2-oxoethyl)phenylamino)nicotinamide] yielded an IC50 (JAK3) of 10 to 100 nM, an IC50 (JAK2) of 100 to 1000 nM and an IC50 (JAK1) of 100 to 1000 nM.

Source: patent US20150353495A1 (PORTOLA PHARMACEUTICALS, INC., priority 2010, published 2015)
